Drawing on ChEMBL document CHEMBL4118060, “A unique mid-sequence linker used to multimerize the lipid-phosphatidylserine (PS) binding peptide-peptoid hybrid PPS1” (Eur J Med Chem, 2017), this text covers Activity for eight compounds.

Calls of active or inactive are those of the source. The calls are words filed in the database; no cut-off is given here. Bridge positions count the residues as written; N and C are the ends. Square brackets hold non-standard residues; d marks the D form. Side chains are listed from the residue outwards. Peptide text beside a SMILES is read from it. I, II: the chains in the order shown. ξ: configuration not given here. Gly(N-piperonyl) = O=C(O)CNCc1ccc2c(c1)OCO2; N(4-MeOBn)Gly = COc1ccc(CNCC(=O)O)cc1; Nrpe = C[C@@H](NCC(=O)O)c1ccccc1; NAllylGly = C=CCNCC(=O)O; AEEA = NCCOCCOCC(=O)O; Nlys = NCCCCNCC(=O)O; ξK = NCCCCC(N)C(=O)O; ξM = CSCCC(N)C(=O)O; Nme = COCCNCC(=O)O; βAla = NCCC(=O)O

The test system of one test is HCC4017. Kind of test: Cytotoxicity against human HCC4017 cells assessed as decrease in cell viability at 0.001 to 50 uM after 24 hrs by MTS assay. The class given is functional, cell-based.
Consider `COc1ccc(CN(CC(=O)N(CCCCN)CC(=O)NC(CCCCN)C(=O)NC(CCCCN)C(=O)NC(CCSC)C(N)=O)C(=O)CN(C(=O)CN(Cc2ccc3c(c2)OCO3)C(=O)CN[C@H](C)c2ccccc2)[C@H](C)c2ccccc2)cc1` (some centres undefined) (H-[Nrpe][Gly(N-piperonyl)][Nrpe][N(4-MeOBn)Gly][Nlys][ξK][ξK][ξM]-NH2), for which the result was inactive.
The same measure, in the same setting: to `COc1ccc(CN(CC(=O)NC(CCCCNC(=O)C(CCCCN)NC(=O)C(CCCCN)NC(=O)CN)C(=O)NCCC(=O)NCCCCC(NC(=O)CN(Cc2ccc(OC)cc2)C(=O)CN(C(=O)CN(Cc2ccc3c(c2)OCO3)C(=O)CN[C@H](C)c2ccccc2)[C@H](C)c2ccccc2)C(=O)NC(CCCCN)C(=O)NC(CCCCN)C(=O)NC(CCSC)C(N)=O)C(=O)CN(C(=O)CN(Cc2ccc3c(c2)OCO3)C(=O)CN[C@H](C)c2ccccc2)[C@H](C)c2ccccc2)cc1` (some centres undefined) (I: H-[Nrpe][Gly(N-piperonyl)][Nrpe][N(4-MeOBn)Gly][ξK][ξK][ξK][ξM]-NH2 / II: H-[Nrpe][Gly(N-piperonyl)][Nrpe][N(4-MeOBn)Gly][ξK]([ξK-ξK-Gly])[βAla]; amide I:5-II:C) belongs “Active”.
The same measure, in the same setting: to `COc1ccc(CN(CC(=O)N(CCCCN)CC(=O)NC(CCCCN)C(=O)NC(CCCCN)C(=O)NC(CCSC)C(=O)NCCCCC(NC(=O)C(CCSC)NC(=O)C(CCCCN)NC(=O)C(CCCCN)NC(=O)CN(CCCCN)C(=O)CN(Cc2ccc(OC)cc2)C(=O)CN(C(=O)CN(Cc2ccc3c(c2)OCO3)C(=O)CN[C@H](C)c2ccccc2)[C@H](C)c2ccccc2)C(N)=O)C(=O)CN(C(=O)CN(Cc2ccc3c(c2)OCO3)C(=O)CN[C@H](C)c2ccccc2)[C@H](C)c2ccccc2)cc1` (some centres undefined) (I: H-[Nrpe][Gly(N-piperonyl)][Nrpe][N(4-MeOBn)Gly][Nlys][ξK][ξK][ξM][ξK]-NH2 / II: H-[Nrpe][Gly(N-piperonyl)][Nrpe][N(4-MeOBn)Gly][Nlys][ξK][ξK][ξM]; amide I:9-II:C) belongs “Active”.
Turning to `C=CCNCC(=O)N(CCOC)CC(=O)N(CC=C)CC(=O)N(CCOC)CC(=O)N(CC=C)CC(=O)NCC(=O)NC(CCCCN)C(=O)NC(CCSC)C(=O)NCCCCC(NC(=O)C(CCSC)NC(=O)C(CCCCN)NC(=O)CNC(=O)CN(CC=C)C(=O)CN(CCOC)C(=O)CN(CC=C)C(=O)CN(CCOC)C(=O)CNCC=C)C(N)=O` (centres undefined) (I: H-[NAllylGly][Nme][NAllylGly][Nme][NAllylGly]GKMK-NH2 / II: H-[NAllylGly][Nme][NAllylGly][Nme][NAllylGly]GKM; amide I:9-II:C; configuration not given here), the result was inactive.
Same read-out and setting: to `COc1ccc(CN(CC(=O)NC(CCCCNC(=O)C(CCCCN)NC(=O)C(CCCCN)NC(=O)CN)C(=O)NC(CCCCN)C(=O)NC(CCCCN)C(N)=O)C(=O)CN(C(=O)CN(Cc2ccc3c(c2)OCO3)C(=O)CN[C@H](C)c2ccccc2)[C@H](C)c2ccccc2)cc1` (some centres undefined) (H-[Nrpe][Gly(N-piperonyl)][Nrpe][N(4-MeOBn)Gly][ξK]([ξK-ξK-Gly])[ξK][ξK]-NH2) belongs “inactive”; to `COc1ccc(CN(CC(=O)NC(CCCCNC(=O)C(CCCCN)NC(=O)C(CCCCN)NC(=O)CN)C(=O)NCCOCCOCC(=O)NCCC(=O)NCCCCC(NC(=O)CN(Cc2ccc(OC)cc2)C(=O)CN(C(=O)CN(Cc2ccc3c(c2)OCO3)C(=O)CN[C@H](C)c2ccccc2)[C@H](C)c2ccccc2)C(=O)NC(CCCCN)C(=O)NC(CCCCN)C(=O)NC(CCSC)C(N)=O)C(=O)CN(C(=O)CN(Cc2ccc3c(c2)OCO3)C(=O)CN[C@H](C)c2ccccc2)[C@H](C)c2ccccc2)cc1` (some centres undefined) (I: H-[Nrpe][Gly(N-piperonyl)][Nrpe][N(4-MeOBn)Gly][ξK][ξK][ξK][ξM]-NH2 / II: H-[Nrpe][Gly(N-piperonyl)][Nrpe][N(4-MeOBn)Gly][ξK]([ξK-ξK-Gly])[AEEA][βAla]; amide I:5-II:C), “Active”.
Consider `COc1ccc(CN(CC(=O)NC(CCCCNC(=O)C(CCCCNC(=O)C(CCCCN)NC(=O)C(CCCCN)NC(=O)C(CCSC)NC(=O)CN)NC(=O)CN(Cc2ccc(OC)cc2)C(=O)CN(C(=O)CN(Cc2ccc3c(c2)OCO3)C(=O)CN[C@H](C)c2ccccc2)[C@H](C)c2ccccc2)C(=O)NCCCCC(NC(=O)CN(Cc2ccc(OC)cc2)C(=O)CN(C(=O)CN(Cc2ccc3c(c2)OCO3)C(=O)CN[C@H](C)c2ccccc2)[C@H](C)c2ccccc2)C(=O)NC(CCCCN)C(=O)NC(CCCCN)C(=O)NC(CCSC)C(N)=O)C(=O)CN(C(=O)CN(Cc2ccc3c(c2)OCO3)C(=O)CN[C@H](C)c2ccccc2)[C@H](C)c2ccccc2)cc1` (some centres undefined) (I: H-[Nrpe][Gly(N-piperonyl)][Nrpe][N(4-MeOBn)Gly][ξK][ξK][ξK][ξM]-NH2 / II: H-[Nrpe][Gly(N-piperonyl)][Nrpe][N(4-MeOBn)Gly][ξK]([ξK-ξK-ξM-Gly]) / III: H-[Nrpe][Gly(N-piperonyl)][Nrpe][N(4-MeOBn)Gly][ξK]; amide I:5-III:C, II:C-III:5), for which the outcome was Active.
On to `COc1ccc(CN(CC(=O)NC(CCCCNC(=O)C(CCCCN)NC(=O)C(CCCCN)NC(=O)CN)C(=O)NCCCCC(NC(=O)CN(Cc2ccc(OC)cc2)C(=O)CN(C(=O)CN(Cc2ccc3c(c2)OCO3)C(=O)CN[C@H](C)c2ccccc2)[C@H](C)c2ccccc2)C(=O)NC(CCCCN)C(=O)NC(CCCCN)C(=O)NC(CCSC)C(N)=O)C(=O)CN(C(=O)CN(Cc2ccc3c(c2)OCO3)C(=O)CN[C@H](C)c2ccccc2)[C@H](C)c2ccccc2)cc1` (some centres undefined) (I: H-[Nrpe][Gly(N-piperonyl)][Nrpe][N(4-MeOBn)Gly][ξK][ξK][ξK][ξM]-NH2 / II: H-[Nrpe][Gly(N-piperonyl)][Nrpe][N(4-MeOBn)Gly][ξK]([ξK-ξK-Gly]); amide I:5-II:C), for which the outcome was Active.

The next test has as its system HCC4017. The test can be described thus: Cytotoxicity against human HCC4017 cells assessed as decrease in cell viability at 0.001 to 50 uM after 24 hrs by calcein AM dye-based fluorescence assay. In kind it is functional.
With `COc1ccc(CN(CC(=O)NC(CCCCNC(=O)C(CCCCNC(=O)C(CCCCN)NC(=O)C(CCCCN)NC(=O)C(CCSC)NC(=O)CN)NC(=O)CN(Cc2ccc(OC)cc2)C(=O)CN(C(=O)CN(Cc2ccc3c(c2)OCO3)C(=O)CN[C@H](C)c2ccccc2)[C@H](C)c2ccccc2)C(=O)NCCCCC(NC(=O)CN(Cc2ccc(OC)cc2)C(=O)CN(C(=O)CN(Cc2ccc3c(c2)OCO3)C(=O)CN[C@H](C)c2ccccc2)[C@H](C)c2ccccc2)C(=O)NC(CCCCN)C(=O)NC(CCCCN)C(=O)NC(CCSC)C(N)=O)C(=O)CN(C(=O)CN(Cc2ccc3c(c2)OCO3)C(=O)CN[C@H](C)c2ccccc2)[C@H](C)c2ccccc2)cc1` (some centres undefined) (I: H-[Nrpe][Gly(N-piperonyl)][Nrpe][N(4-MeOBn)Gly][ξK][ξK][ξK][ξM]-NH2 / II: H-[Nrpe][Gly(N-piperonyl)][Nrpe][N(4-MeOBn)Gly][ξK]([ξK-ξK-ξM-Gly]) / III: H-[Nrpe][Gly(N-piperonyl)][Nrpe][N(4-MeOBn)Gly][ξK]; amide I:5-III:C, II:C-III:5), the outcome was Active.
